Measured values taken from patent US12071423B2, “Processes and intermediate for the large-scale preparation of 2,4,6-trifluoro-N-[6-(1-methyl-piperidine-4-carbonyl)-pyridin-2-yl]-benzamide hemisuccinate, and preparation of 2,4,6-trifluoro-N-[6-(1-methyl-piperidine-4-carbonyl)-pyridin-2-yl]-benzamide acetate” (Eli Lilly and Company, priority 2019, dated 2024).
Structures can show the parent of a compound that is named as a salt. Where two headings read alike, the source gives them in different places.

Columns and labels:
Type in all cases: physicochemical
[1] = Form and chemical stability studies of the intermediate
Text: [drawing 6] which can be named as (6-amino-2-pyridyl)-(1-methyl-4-piperidyl)methanone dihydrate dihydrochloride. Preferably this compound is crystalline. (6-amino-2-pyridyl)-(1-methyl-4-piperidyl)methanone dihydrate dihydrochloride is particularly useful in the preparation of 2,4,6-trifluoro-N-[6-(1-methylpiperidine-4-carbonyl)-2-pyridyl]benzamide hemisuccinate, and processes which employ (6-amino-2-pyridyl)-(1-methyl-4-piperidyl)methanone dihydrate dihydrochloride may provide advantageous process characteristics, including but not limited to the purity of intermediate and/or final materials. (6-amino-2-pyridyl)-(1-methyl-4-piperidyl)methanone dihydrate dihydrochloride is believed to be a new stable hydrated form of 6-amino-2-pyridyl)-(1-methyl-4-piperidyl)methanone. The process to isolate (6-amino-2-pyridyl)-(1-methyl-4-piperidyl)methanone dihydrate dihydrochloride described herein provides improved impurity rejection and an improved controlled crystallization process. […] Use of this intermediate provides advantageously high purity product at expected yield.

[2] = Dissolution of lasmiditan acetate at 50 mg/mL: pH and tonicity of the solution; conditions: dissolution at 50 mg/mL
Description: (§1) Lasmiditan acetate enables the desired solubility to provide high concentration formulations having a less than or equal to about 1 mL dose volume, for the desired unit doses, which is critical for clinical applications such as use in available autoinjector devices. In addition, dissolution of lasmiditan acetate at 50 mg/mL results in close to neutral pH (pH approximately 6.8), is isotonic, and stable for at least 2 months.

[3] = Solubility in 10 mmol acetate, citrate or phosphate buffer (excess solid equilibrated at RT overnight, HPLC)
Description: Lasmiditan acetate was discovered to enable a desired dose target of about 50 mg in the minimal volume of less than or equal to about 1 mL, while at the same time achieving a desired target pH being close to neutral, and in addition being relatively isotonic and physically and chemically stable. […] For solubility determinations 10 mmol buffer is made with a respective acid and salt, and pH is adjusted by changing the acid/salt ratio. Excess solid is equilibrated at RT overnight, and solution concentration is analyzed by HPLC and solid was characterized by XRPD. In contrast, for lasmiditan acetate it was discovered that solubility of >50 mg/mL can be achieved, at close to neutral pH, without adjusting the pH.

[4] = Stability of lasmiditan acetate 50 mg/mL solution; conditions: dissolution at 50 mg/mL
Description: as §1

For `CN1CCC(C(=O)c2cccc(N)n2)CC1` [(6-amino-2-pyridyl)-(1-methyl-4-piperidyl)methanone dihydrate dihydrochloride], the “form and chemical stability” value [1] was “generally stable”.
With `CC(=O)O.CN1CCC(C(=O)c2cccc(NC(=O)c3c(F)cc(F)cc3F)n2)CC1` [Lasmiditan Acetate, 2,4,6-trifluoro-N-[6-(1-methylpiperidine-4-carbonyl)-2-pyridyl]benzamide acetate] the pH on dissolution [2] was “approximately 6.8”, the tonicity of solution [2] was “isotonic” and the “solubility compared with lasmiditan hemisuccinate salt” value [3] was “significantly higher solubility”. It also gave a solubility ([3]; 10 mmol acetate buffer, pH 3.69, aqueous buffer, thermodynamic from solid, Acetate buffer, pH (before) 3.69, free base eq., all added solute went into solution, read-out: Solubility (Free Base eq. mg/mL)) greater than 441 mg/mL, a solubility ([3]; 10 mmol acetate buffer, pH 4.05, aqueous buffer, thermodynamic from solid, Acetate buffer, pH (before) 4.05, free base eq., all added solute went into solution, read-out: Solubility (Free Base eq. mg/mL)) greater than 430 mg/mL and a solubility ([3]; 10 mmol acetate buffer, pH 4.4, aqueous buffer, thermodynamic from solid, Acetate buffer, pH (before) 4.4, free base eq., all added solute went into solution, read-out: Solubility (Free Base eq. mg/mL)) greater than 412 mg/mL. The solubility ([3]; 10 mmol acetate buffer, pH 5.09, aqueous buffer, thermodynamic from solid, Acetate buffer, pH (before) 5.09, free base eq., all added solute went into solution, read-out: Solubility (Free Base eq. mg/mL)) was greater than 430 mg/mL, the solubility ([3]; 10 mmol acetate buffer, pH 5.71, aqueous buffer, thermodynamic from solid, Acetate buffer, pH (before) 5.71, free base eq., all added solute went into solution, read-out: Solubility (Free Base eq. mg/mL)) was greater than 486 mg/mL and the solubility ([3]; 10 mmol buffer (acetate, citrate or phosphate), pH 6.8, thermodynamic from solid, at close to neutral pH, without adjusting the pH, read-out: solubility) was greater than 50 mg/mL. The solubility ([3]; 10 mmol citrate buffer, pH 2.5, aqueous buffer, thermodynamic from solid, Citrate buffer, pH (before) 2.5, free base eq., all added solute went into solution, read-out: Solubility (Free Base eq. mg/mL)) was greater than 300 mg/mL, the solubility ([3]; 10 mmol citrate buffer, pH 3.84, aqueous buffer, thermodynamic from solid, Citrate buffer, pH (before) 3.84, free base eq., all added solute went into solution, read-out: Solubility (Free Base eq. mg/mL)) was greater than 300 mg/mL and the solubility ([3]; 10 mmol citrate buffer, pH 4.99, aqueous buffer, thermodynamic from solid, Citrate buffer, pH (before) 4.99, free base eq., all added solute went into solution, read-out: Solubility (Free Base eq. mg/mL)) was greater than 300 mg/mL. For the same compound, the solubility ([3]; 10 mmol citrate buffer, pH 5.96, aqueous buffer, thermodynamic from solid, Citrate buffer, pH (before) 5.96, free base eq., all added solute went into solution, read-out: Solubility (Free Base eq. mg/mL)) was greater than 300 mg/mL, the solubility ([3]; 10 mmol phosphate buffer, pH 8.24, aqueous buffer, thermodynamic from solid, Phosphate buffer, pH (before) 8.24, free base eq., all added solute went into solution, read-out: Solubility (Free Base eq. mg/mL)) was greater than 300 mg/mL and the “pH (after)” value ([3]; Acetate buffer, pH (before) 3.69) was 6.25. For the same compound, the “pH (after)” value ([3]; Acetate buffer, pH (before) 4.05) was 6.41, the “pH (after)” value ([3]; Acetate buffer, pH (before) 4.4) was 6.31 and the “pH (after)” value ([3]; Acetate buffer, pH (before) 5.09) was 6.50. The “pH (after)” value ([3]; Acetate buffer, pH (before) 5.71) was 6.56, the “pH (after)” value ([3]; Citrate buffer, pH (before) 2.5) was 5.60 and the “pH (after)” value ([3]; Citrate buffer, pH (before) 3.84) was 5.72. The “pH (after)” value ([3]; Citrate buffer, pH (before) 4.99) was 6.23, the “pH (after)” value ([3]; Citrate buffer, pH (before) 5.96) was 6.24 and the “pH (after)” value ([3]; Phosphate buffer, pH (before) 8.24) was 6.42. For the same compound, the stability of solution [4] was “at least 2 months”.
For `CN1CCC(C(=O)c2cccc(NC(=O)c3c(F)cc(F)cc3F)n2)CC1` [lasmiditan hemisuccinate, 2,4,6-trifluoro-N-[6-(1-methylpiperidine-4-carbonyl)-2-pyridyl]benzamide hemisuccinate, reference compound], the “achieving >50 mg/mL solubility” value ([3]; at close to neutral pH) was “difficult without using co-solvents”.
